Structures are written as SMILES. Like-named read-outs stand apart in the source and are kept apart here.

Results on 8 compounds are retold here after patent publication US4192944A, “Optionally substituted 4-oxo-4H-pyrido[1,2-a]pyrimidine-3-N-(1H-tetrazol-4-yl)carboxamides and their use as antiallergy agents” (priority 1978, dated 1980).

For data set [1] the following is noted: cited from earlier work.
Data set [2] deals with reagin-mediated Passive Cutaneous Anaphylaxis (PCA). The data set can be described thus: reagin-mediated rat Passive Cutaneous Anaphylaxis (PCA) screening test. It counts as in vivo. From the text:
The reagin-mediated rat Passive Cutaneous Anaphylaxis (PCA) screening test used to evaluate the present compounds is generally regarded as one of the best animal models for use in predicting the antiallergy activity of test compounds in man. This screen provides a measure of the effectiveness of test compounds in either inhibiting the release or antagonizing the action of mediators arising from the interaction of reaginic antibodies with specific antigen, mediators which are causative factors in allergic disorders. The details of the test are fully described in U.S. Pat. No. 4,031,093.
The test compounds were solubilized in aqueous sodium bicarbonate and administered intravenously (i.v.) or per os (p.o.) either one or ten minutes, respectively, prior to antigen challenge. Disodium cromoglycate (DSCG), solubilized in saline, was administered i.v. at the time of challenge and p.o 30 minutes prior to challenge.

Data set [3] concerns release of mediators, e.g. histamine and SRS-A. Particulars: administered to asthmatic patients prior to inhalation of specific antigens; cited from earlier work.
The conditions of data set [4]: must be administered by inhalation; cited from earlier work.
[5] abbreviates: po, in aqueous sodium bicarbonate, ten minutes prior to antigen challenge, read-out: ID50 p.o. (dose of compound that inhibits 50% of the response).

For `Cn1c(=O)c2[nH]cnc2n(C)c1=O` [theophylline], in data set [1] (in vivo), the side effects entry is “cardiac stimulation and gastrointestinal distress”. Turning to `CCc1cccn2c(=O)c(C(=O)Nc3nnn[nH]3)cnc12` [Example 3, 9-Ethyl-4-oxo-4H-pyrido[1,2-a]pyrimidine-3-N-(1H-tetrazol-5-yl)carboxamide], in data set [2] (setting [5]), the ED50 came out at 0.1 mg/kg.

Regarding `Cc1cccn2c(=O)c(C(=O)Nc3nnn[nH]3)cnc12` [Example 2, 9-Methyl-4-oxo-4H-pyrido[1,2-a]pyrimidine-3-N-(1H-tetrazol-5-yl)carboxamide], the ED50 in data set [2] (iv, in aqueous sodium bicarbonate, one minute prior to antigen challenge, read-out: ID50 i.v. (dose of compound that inhibits 50% of the response)) came out at 0.04 mg/kg; in data set [2] (setting [5]), 0.1 mg/kg. Consider `CNC[C@H](O)c1ccc(O)c(O)c1` [epinephrine], for which the side effects result in data set [1] (treatment of bronchial asthma) is “cardiac stimulation and gastrointestinal distress”. Regarding `O=C(O)c1cc(=O)c2c(OCC(O)COc3cccc4oc(C(=O)O)cc(=O)c34)cccc2o1` [DSCG, Disodium cromoglycate], the “inhibition of release of mediators (histamine, SRS-A)” value in data set [3] was “inhibits the release of mediators”. Also, the ED50 was 0.6 mg/kg in data set [2] (iv, DSCG, i.v., in saline, at the time of challenge, read-out: ID50 i.v. (dose of compound that inhibits 50% of the response)) and above 30 mg/kg in data set [2] (po, DSCG, p.o., in saline, 30 minutes prior to challenge, read-out: ID50 p.o. (dose of compound that inhibits 50% of the response)). Also, the oral absorption result in data set [4] is given as “not orally absorbed”. Besides, the side effects entry in data set [1] (in vivo) is listed as “without cardiovascular side effects”. Regarding `O=C(Nc1nnn[nH]1)c1cnc2ccccn2c1=O` [Example 1, 4-Oxo-4H-pyrido[1,2-a]pyrimidine-3-N-(1H-tetrazol-5-yl)carboxamide], the ED50 in data set [2] (setting [5]) came to 0.2 mg/kg.

For `CC(C)NCC(O)c1ccc(O)c(O)c1` (stereo not shown) [isoproterenol], in data set [1] (treatment of bronchial asthma), the side effects entry was “cardiac stimulation and gastrointestinal distress”. With `CN1[C@@H]2CC[C@H]1C[C@@H](OC(=O)C(CO)c1ccccc1)C2` (stereo partly shown) [atropine], the side effects entry in data set [1] (treatment of bronchial asthma) is “cardiac stimulation and gastrointestinal distress”.
